The target in one test is T1, alpha-2A receptor (Homo sapiens, UniProt P08913).
T1 sequence (P08913 1-465): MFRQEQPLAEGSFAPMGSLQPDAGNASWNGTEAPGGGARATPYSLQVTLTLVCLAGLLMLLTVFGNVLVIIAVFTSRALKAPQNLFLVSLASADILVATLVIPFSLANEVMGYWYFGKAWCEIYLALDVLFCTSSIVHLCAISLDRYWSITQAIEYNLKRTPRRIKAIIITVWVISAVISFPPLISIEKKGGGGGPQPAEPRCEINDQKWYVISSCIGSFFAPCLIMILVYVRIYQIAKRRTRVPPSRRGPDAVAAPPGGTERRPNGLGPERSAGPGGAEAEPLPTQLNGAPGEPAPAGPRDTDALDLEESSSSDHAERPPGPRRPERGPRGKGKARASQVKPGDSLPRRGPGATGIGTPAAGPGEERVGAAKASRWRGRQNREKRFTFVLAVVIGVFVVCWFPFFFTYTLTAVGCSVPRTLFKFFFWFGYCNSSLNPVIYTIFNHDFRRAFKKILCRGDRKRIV
Description: Alpha-adrenergic receptor activation (efficacy relative to brimonidine, e.g. RSAT). Format: cell-based. The conditions noted are these: lacks significant activity = less than 40% of the efficacy of brimonidine at the alpha-2A receptor subtype. From the text: The methods of the present invention use alpha-2 agonists lacking significant activity at the alpha-2A receptor subtype. An agonist lacks significant alpha-2A receptor activity if the agonist has less than 40% of the efficacy of brimonidine at the alpha-2A receptor subtype. Compounds of the invention include, therefore, alpha-2B receptor agonists lacking significant alpha-2A activity; alpha 2B/2C receptor agonists lacking significant alpha-2A activity; and alpha-2C receptor agonists lacking significant alpha-2A activity.
Efficacy, also known as intrinsic activity, is a measure of maximal receptor activation achieved by a compound and can be determined using any accepted assay of alpha-adrenergic receptor activation, such as a cAMP or Receptor Selection and Amplification Technology (RSAT). […]
The RSAT assay measures receptor-mediated loss of contact inhibition resulting in selective proliferation of receptor-containing cells in a mixed population of confluent cells. The increase in cell number is assessed with an appropriate detectable marker gene such as beta-galactosidase, if desired, in a high throughput or ultra high throughput assay format. […]
As an example, an RSAT assay can be performed essentially as follows. […] The EC50 and maximal effect (i.e., efficacy) of each drug at each receptor is determined.

Test [1] concerns PPI disrupted by psychostimulants. Description: Prepulse inhibition (PPI) of the startle response disrupted by psychostimulants. The settings on record: for % PPI PP3: pre-pulse 3 dB above background; for % PPI PP6: pre-pulse 6 dB above background; for % PPI PP12: pre-pulse 12 dB above background. Format: in vivo, Male Sprague-Dawley rats. The method, then:
Male Sprague-Dawley rats were treated with Drug 1 (IP) followed 20 minutes later by Drug 2 (IP or SC as indicated in the methods). Ten minutes following administration of Drug 2 (except in the case of apomorphine where animals were immediately tested post-apomorphine), rats were placed in the startle chamber and allowed 5 minutes to acclimate with 65-dB background white noise. The acclimation period was followed by a ˜15 minute test session during which time rats were presented with 40 ms 120 dB startle pulses alone or preceded 100 ms by a pre-pulse 3, 6, or 12 dB above background. These four types of active stimuli were presented in pseudorandom order along with no-stimulation trials to assess baseline activity throughout testing. An average of 20 s separated each trial type. The maximum startle magnitude was measured for every trial type. PPI for each animal was calculated as the percentage startle magnitude to the pre-pulse+pulse or no-stimulation trials relative to the pulse-alone startle magnitude. * and ** indicate differences relative to vehicle+vehicle-treated animals (P<0.05 and P<0.01, respectively).
Prepulse inhibition of the startle response. Sprague Dawley male rats (˜250 g-300 g) are used (n=8/group). Rats are administered drug 1 (vehicle, Compound A, Compound B, or clonidine) followed 20 minutes later by amphetamine (2 mg/kg, s.c.), apomorphine (0.5 mg/kg s.c), PCP (2 mg/kg i.p.) or vehicle (0.9% NaCl, s.c.). Either immediately (apomorphine) or 10 minutes (amphetamine, PCP, or vehicle) following injection of drug 2, animals are placed in the SR-Lab startle chamber (San Diego Instruments, San Diego Calif.). Each rat is acclimated to the chamber for 5 minutes with 65 dB background noise. This acclimation period is followed by a ˜15 minute PPI test session where rats are presented with 120 dB startle pulses without a pre-pulse or pulses preceded by a pre-pulse of 3, 6, or 12 dB above background noise. These active stimuli are presented in pseudorandom order along with no-sound trials, with an average of 20 sec separating each trial (range 5-27 seconds). A sensor in the chamber records the startle magnitude following all stimuli presented. % PPI represents the percentage startle magnitude to the pre-pulse+pulse or no-stim trials relative to the pulse-alone startle magnitude.
The alpha 2B compounds were administered i.p. or p.o., PCP was administered i.p., and apomorphine and amphetamine were administered s.c.

In test [2] the test system is amphetamine-induced stereotypy. Description: Amphetamine-induced stereotypy (open field locomotor behavior). Format: in vivo, C57B/6 male mice. The conditions noted are these: for AMBULATIONS: indicative of hyperactivity; for FINE MOVEMENTS: scored 60 min post-amphetamine, indicative of stereotypy; for inhibition of amphetamine-induced stereotypy (in words): high-dose psychostimulant administration. On the procedure: C57B/6 male mice were placed in an open field apparatus and allowed to habituate for 15-30 minutes. Compounds A or B were administered PO at 0, +15, or +30 minutes relative to amphetamine (8 mg/kg) administration (Compound B was also administered 15 minutes pre-amphetamine), and locomotor behavior was scored for an additional 60 minutes post-amphetamine. Amphetamine was administered IP. Locomotion was separated into “fine movements” (indicative of stereotypy) and “ambulations” (indicative of hyperactivity).
Amphetamine induced stereotypy. C57B/6 male mice were placed in an open field apparatus and allowed to habituate for 15-30 minutes. Compounds A or B were administered at 0, +15, or +30 minutes relative to amphetamine (8 mg/kg) administration (Compound B was also administered 15 minutes pre-amphetamine), and locomotor behavior was scored for an additional 60 minutes post-amphetamine. Locomotion was separated into “fine movements” (indicative of stereotypy) and “ambulations” (indicative of hyperactivity).

Where [3] appears, read: Drug 1 10 ug/kg, Drug 2 Amph (2 mg/kg).
[4] abbreviates: Drug 1 30 ug/kg, Drug 2 Amph (2 mg/kg).
Setting [5] is: Drug 1 100 ug/kg, Drug 2 Amph (2 mg/kg).
[6] abbreviates: compound PO at 0 min post-amphetamine (8 mg/kg IP).
Where [7] appears, read: compound PO at 15 min post-amphetamine (8 mg/kg IP).
[8] abbreviates: compound PO at 30 min post-amphetamine (8 mg/kg IP).
Where [9] appears, read: compound PO at -15 min relative to amphetamine (8 mg/kg IP).
[10] abbreviates: Drug 1 30 ug/kg, Drug 2 Apo (0.5 mg/kg).
[11] abbreviates: Drug 1 30 ug/kg, Drug 2 PCP (2 mg/kg).
[12] abbreviates: Drug 1 0.03 mg/kg, Drug 2 Amph (2 mg/kg).

Marks after values point to notes of the source that are not given here.

Take `O=C1c2ccccc2CC[C@H]1Cc1c[nH]c(=S)[nH]1` [Compound B]: at alpha-2A receptor, the “alpha-2A receptor activity (in words)” value is on record as “lack significant alpha-2A receptor activity”. Besides, the “% PPI PP3” value in test [1] (setting [3]) was determined as 28.2 ± 7.4%; in test [1] (setting [4]), 25.3 ± 9.2%; in test [1] (setting [5]), 34.5 ± 5.7%. For the same compound, the “% PPI PP6” value in test [1] (setting [3]) was determined as 30.9 ± 6.2%*; in test [1] (setting [4]), 48.6 ± 5.3%; in test [1] (setting [5]) it was 45.3 ± 7.4%. The “% PPI PP12” value in test [1] (setting [3]) was found to be 46.9%; in test [1] (setting [4]) it was 60.0%; in test [1] (setting [5]) it was 67.0%. The AMBULATIONS in test [2] (setting [6]) is reported as 9954.8 ± 1042.9; in test [2] (setting [7]) it was 7226.2 ± 457.3; in test [2] (setting [8]) it was 8453.8 ± 461.7; in test [2] (setting [9]), 7258.8 ± 672.4. The “FINE MOVEMENTS” value is recorded as 736.7 ± 103.4^⋄ in test [2] (setting [6]), 1096.3 ± 79.2^⋄ in test [2] (setting [7]), 1284.8 ± 48.8^⋄ in test [2] (setting [8]) and 937.3 ± 47.3^⋄ in test [2] (setting [9]). In addition, the “inhibition of amphetamine-induced stereotypy (in words)” value in test [2] is listed as “effectively inhibit stereotypy”.

Consider `Clc1cccc(Cl)c1N=C1NCCN1` [Clonidine, reference compound], for which, in test [1] (setting [10]), the “% PPI PP3” value was determined as 20.0 ± 10.6%, the “% PPI PP6” value came out at 31.5 ± 11.0% and the “% PPI PP12” value was 24.5%. For the same compound, in test [1] (setting [11]), the “% PPI PP3” value was 31.7 ± 13.5%, the “% PPI PP6” value amounted to 30.1 ± 13.1% and the “% PPI PP12” value turned out to be 53.7%. In addition, in test [1] (setting [12]), the “% PPI PP3” value is 21.8 ± 9.1%, the “% PPI PP6” value is 35.5 ± 8.6% and the “% PPI PP12” value stood at 51.3%.

As for `OCCNC(=S)NCc1cccc(Cl)c1F` [Compound A], the “alpha-2A receptor activity (in words)” value on alpha-2A receptor is on record as “lack significant alpha-2A receptor activity”. Besides, the “% PPI PP3” value in test [1] (setting [10]) came to 38.5 ± 7.7%; in test [1] (setting [11]), 40.2 ± 7.5%; in test [1] (setting [5]), 38.6 ± 7.1%. Also, the entries for the “% PPI PP6” value in test [1] (setting [10]), in test [1] (setting [11]) and in test [1] (setting [5]) were 53.8 ± 6.2%, 50.6 ± 5.5% and 50.2 ± 4.7%, respectively. Further, the “% PPI PP12” value in test [1] (setting [10]) was determined as 58.9%; in test [1] (setting [11]), 62.9%; in test [1] (setting [5]) it was 68.5%. In addition, the “restoration of PPI disrupted by psychostimulants (in words)” value in test [1] (amphetamine, apomorphine, and phencyclidine) is reported as “significantly inhibited the disruption of PPI”. Further, the AMBULATIONS stood at 6338.0 ± 714.1 in test [2] (setting [6]), 14056.6 ± 708.7 in test [2] (setting [7]) and 7494.6 ± 612.3 in test [2] (setting [8]). For the same compound, the “FINE MOVEMENTS” value is on record as 810.1 ± 112.5^⋄ in test [2] (setting [6]), 1312.9 ± 205.2^⋄ in test [2] (setting [7]) and 2581.3 ± 359.1 in test [2] (setting [8]). The “inhibition of amphetamine-induced stereotypy (in words)” value in test [2] was “effectively inhibit stereotypy”.

These data come from US8455548B2, “Method of treating sensorimotor disorders with alpha-2 adrenergic receptor agonists” (Allergan, Inc., priority 2007, dated 2013).
